Assay results reported in patent US10662210B2, “Compositions and methods comprising osmium for the treatment of cancers” (Massachusetts Institute of Technology, priority 2014, dated 2020).

What was measured:
[1] = system: A2780 cells; test: Dual Annexin V staining/PI flow cytometry assay; format: cell-based, human; settings: 72 hours
Experimental: To have a more complete understanding of the cellular response induced by 2 or 4, their mode of cell killing was evaluated. Many clinically approved cancer drugs exert their cytotoxic effects through apoptosis, and so the features related to this pathway were monitored. Apoptotic cells underwent morphological changes that lead to cell membrane disorientation. […] Cells can undergo other forms of cell death such as necrosis and autophagy. To probe these pathways, cytotoxicity assays were carried out in the presence of […], chloroquine, and IM-54, respectively. Because both chloroquine and IM-54 had little effect on the potency of either of the osmium complexes, necrosis and autophagy were ruled out as possible death pathways. […] On the other hand, 4 initiated ER stress, culminating in p53 independent, caspase directed apoptosis (FIG. 4).
In order to monitor the cell cycle, flow cytometry studies were carried out. […] DNA content was measured on a FACSCalibur-HTS flow cytometer (BD Biosciences) using laser excitation at 488 nm and 20,000 events per sample were acquired. Cell cycle profiles were analysed using the ModFit software. […] The samples were kept on ice prior to being read on the FACSCalibur-HTS flow cytometer (BD Biosciences) and 20,000 events per sample were acquired. Cell populations were analysed using the FlowJo software (Tree Star).

[2] = system: pUC19 plasmid DNA; test: Agarose gel electrophoresis of plasmid DNA; format: biochemical; settings: 24 h, 37° C.
Experimental: (§1) The osmium compounds were hypothesized to induce cell death through DNA interactions. Therefore, the interaction of 2 or 4 with pUC19 plasmid DNA was investigated using gel electrophoresis; the results of which are as shown in FIG. 6. As the concentration of 2 increased, there was a clear increase in the amount of nicked circular, and a concomitant decrease in the amount of supercoiled, plasmid DNA. At concentrations >250 μM, the bands in the gel smeared and then disappeared. […] The DNA binding kinetics of 2 and 4 were studied by measuring the amount of osmium bound to precipitated ct-DNA; the results of which are as shown in FIG. 7. The half-life of this reaction for 2 was 2 hours.
Plasmid DNA (pUC19) was kindly donated. The DNA binding ability of the osmium complexes was determined by monitoring the conversion of supercoiled plasmid DNA (form I) to nicked circular DNA (form II) using agarose gel electrophoresis. To probe the effect of Os-complex concentration, solutions containing […] of DNA and 0, 10, 20, 50, 100, 250, 500, and 1000 μM of the osmium complexes with a total reaction volume of 15 μL were incubated at 37° C. for 24 h. […] The DNA bands were analysed under UV light using a Flor-S reader (BioRad).

[3] = system: Eμ-Mycp19arf−/− lymphoma cells; test: RNAi signatures, GFP competition assay; settings: for shChk2 log 2(RI) value / shp53 log 2(RI) value: LD80-90 concentration; for RNAi signature classification against reference set: probabilistic K-nearest neighbors
Source text: This RNAi-based methodology relied on a fluorescence competition assay involving lymphoma cells that were partially infected with one of eight distinct short hairpin RNAs (shRNAs). shRNA-bearing cells will either enrich or deplete relative to the uninfected population based on drug survival advantage or disadvantage conferred by a given shRNA. […] The signature of a novel compound was compared to those of a reference set of drugs using a probabilistic K-nearest neighbors algorithm to determine whether it belonged to a class in the reference set or a new category that was not represented in the reference set.
Compounds were dosed to achieve an LD80-90 in Eμ-Myc^p19arf−/− cells by propidium iodide exclusion as determined by FACS after a 48 h incubation. GFP enrichment/depletion was then determined by FACS at 72 h. […] All FACS was conducted using a FACScan (BD Biosciences).
Eμ-Myc^p19arf−/− lymphoma or p185+ BCR-Abl^p19arf−/− leukemia cells were infected with GFP-tagged shRNAs such that 15-25% of the population were GFP positive. An eighth of a million cells in 250 μL B-cell media (BCM) were then seeded into 24-well plates. For wells that would remain untreated as a control, only 1/16th of a million cells were seeded. Next, 250 μL of media containing the active agent was added to the cells. After 24 h, 300 μL of cells from untreated wells are removed and replaced by 300 μL fresh BCM. All wells then received 500 μL BCM before being placed by in the incubator for another 24 h. At 48 h, cells transduced with the control vector, MLS, were checked for viability via FACS on a FACScan (BD Biosciences) using propidium iodide as a live/dead marker. Untreated wells then had 700 μL of cells removed and replaced with 700 μL fresh media followed by a further 1 mL of fresh media. […] Finally, at 72 h, all wells for which an LD80-90 was achieved, as well as the untreated samples, were analyzed via FACS to determine GFP % enrichment.

[4] = Water-octanol partition coefficient (log P), shake-flask method with GF-AAS; format: physicochemical; settings: room temperature, 50 μM
Experimental: Those of ordinary skill in the art would be knowledgeable of methods of determining the water-octanol partition coefficient of compounds. For example, the log P of a compound may be obtained using the shake-flask method and graphite furnace atomic absorption spectroscopy (GF-AAS). Briefly, in the shake-flask method, octanol is pre-saturated with water by overnight incubation with shaking of a biphasic mixture of the two at room temperature. A portion of 0.5 mL water containing 50 μM of the given compound is incubated with the pre-saturated octanol (0.5 mL) in a 1.5 mL tube. The tube is shaken at room temperature for 3 hours. The two phases are separated by centrifugation and the osmium content (concentration) in each phase is determined by GFAAS. The log P is then calculated using the formula below: log P=log 10[(concentration of osmium in the octanol layer)/(concentration of osmium in the water layer)].
The log P values were obtained using the shake-flask method and graphite furnace atomic absorption spectroscopy (GF-AAS). Octanol used in this experiment was pre-saturated with water by overnight incubation with shaking of a biphasic mixture of the two at room temperature. A portion of 0.5 mL water containing 50 μM of the given compound was incubated with the pre-saturated octanol (0.5 mL) in a 1.5 mL tube. The tube was shaken at room temperature for 3 h. The two phases were separated by centrifugation and the osmium content (concentration) in each phase was determined by GFAAS. All the experiments were carried out in triplicate. The log P was then calculated using the formula below: Log P=log 10[(conc. of osmium in the octanol layer)/(conc. of osmium in the water layer)].

[5] = system: ct-DNA; test: DNA binding kinetics (osmium bound to precipitated ct-DNA); settings: 25 μM complex, 250 μM ct-DNA, 37° C.
Experimental: as §1
The amount of osmium covalently bound to ct-DNA was determined by modification of a previously reported protocol. A solution of ct-DNA (0.25 mM, nucleotide) was incubated with 2 or 4 at a bp:metal complex ratio of 5:1 at 37° C. in 1 mM sodium phosphate buffer, pH 7.4, containing 3 mM NaCl. At certain time points, a 250 μL aliquot was removed and the DNA was precipitated by adding 10 μL of NaCl (5 M) and 1.0 mL of EtOH (stored at 4° C.). The solution was centrifuged to remove DNA, and the concentration of unbound osmium was determined by GF-AAS.

| SMILES | occurrence of apoptosis (Annexin V/PI) [1] | effect on pUC19 DNA in gel electrophoresis [2] | shChk2 log 2(RI) value [3] | shp53 log 2(RI) value [3] | RNAi signature classification against reference set [3] | log P (water-octanol coefficient) [4] | half-life of ct-DNA binding reaction [5] |
| --- | --- | --- | --- | --- | --- | --- | --- |
| [N]#[Os]1([Cl])([Cl])([Cl])[N]2C=CC(c3ccccc3)=c3ccc4c(c32)[N]1C=CC=4c1ccccc1 [Complex 4, OsN(4,7-diphenyl-1,10-phenanthroline)Cl3] | induced large populations of cells to undergo early and late stage apoptosis | no visible effect | 0.73 | 1.32 | represented novel mechanisms of drug action | 1.84 | – |
| [N]#[Os]1([Cl])([Cl])([Cl])[N]2C=CC=c3ccc4c(c32)[N]1C=CC=4 [Complex 2, OsN(1,10-phenanthroline)Cl3] | induced large populations of cells to undergo early and late stage apoptosis | induced conformational changes and degradation of circular DNA | 2.6 | 2.7 | represented novel mechanisms of drug action | 1.26 | 2 h |
